According to patent US8415296B2, “Oxyntomodulin peptide analogue” (Eli Lilly and Company, priority 2009, dated 2013):
Marks after values point to notes of the source that are not given here.

What was measured:
Type in all cases: in vivo
[1] = Intraperitoneal glucose tolerance test in lean mice; settings: IPGTT; for Glucose AUC, MEAN: 0 to 30 min; for Insulin AUC, MEAN: plasma insulin 0 to 30 min
Procedure: Nine week old male C57BL/6 mice are used in the study Animals are randomized into groups based on fed body weight. […] Food is removed at the time of injection of peptide or vehicle. At time 0, animals are given 2 g/kg dextrose by IP injection. Blood is collected by tail vein bleeding at 0, 3, 6, 12 and 30 minutes after glucose challenge. Glucose concentration is measured by glucometer. Insulin is measure by Mesoscale.

[2] = Intraperitoneal glucose tolerance test after 2-week treatment in DIO mice; settings: ip glucose load 2 g/kg, 0 to 120 min
Procedure: (§1) Fifty-six hours after the fifth injection as described in Example 7 in DIO mice, mice are fasted for 16 hours prior to the start of the glucose tolerance test. At time 0, animals are given 2 g/kg dextrose by oral gavage (Table 3, Study 1) or intraperitoneal (IP) injection (Table 4, Study 2). Blood is collected by tail vein bleeding at 0, 15, 30, 60 and 120 minutes after glucose challenge. Glucose concentration is measured by glucometer.

[3] = Oral glucose tolerance test in ob/ob mice; settings: for Glucose AUC, MEAN: OGTT, 0 to 120 min
Procedure: (§2) Two to three months old male ob/ob mice are individually housed in a temperature-controlled (24° C.) facility with a 12 hour light/dark cycle (lights on 2200 hours), and have free access to food and water. After at least 2 weeks of acclimation to the facility, 3-hours fasting blood glucose is measured by tail vein bleeding at 9 AM. Mice with blood glucose under 180 mg/dL are not used. Remaining animals are randomized to treatment groups (N=7/group), each group having similar average blood glucose level. The mice are given access to food until the time of injection. […] Food is removed at the time of injection. An OGTT (Table 7) or IPGTT (Table 8) is performed 16 hours after the peptide injection. At time 0, animals are given 2 g/kg dextrose by oral gavage (Table 7) or intraperitoneal injection (Table 8). Blood is collected by tail vein bleeding at 0, 15, 30, 60 and 120 minutes after glucose challenge. Blood glucose concentration is measured by glucometer.

[4] = Intraperitoneal glucose tolerance test in ob/ob mice; settings: IPGTT, 0 to 120 min, 7.5 nmole/kg 16 hours before
Procedure: as §2

[5] = Food intake, body weight and body composition in diet-induced obese (DIO) mice; settings: for reduction of cumulative food intake compared to the vehicle group: end of 2-week study; for Fat mass loss (g fat weight change for 14 days) / Overall weight loss (g weight change for 14 days) / Total food intake (g total for 14 days): mean ± SEM
Procedure: Three to four months old male diet-induced obese (DIO) mice are individually housed in a temperature-controlled (24° C.) facility with a 12 hour light/dark cycle (lights on 22:00), and have free access to food and water. After 2 weeks acclimation to the facility, mice are randomized to treatment groups (n=8-10/group), each group having similar mean body weight and fat mass. Mice are subcutaneously (sc) injected with vehicle solution and weighed for 2 days to acclimate them to the procedures.
Body weight and the weight of food plus the hopper are measured at the same time. Food consumed in the preceeding 24 hours is calculated by subtracting current weight of food plus the hopper from that of the previous day. Absolute changes in body weight are calculated by subtracting the body weight of the animal prior to the first injection. On days 1 and 14 total fat mass is measured by nuclear magnetic resonance (NMR) using an Echo Medical System (Houston, Tex.) instrument. Fat free mass is calculated by subtracting fat mass from total body weight.

[6] = Oral glucose tolerance test after 2-week treatment in DIO mice; settings: for Glucose AUC, MEAN: oral glucose load 2 g/kg, 0 to 120 min
Procedure: as §1

[7] = Study 1, DIO mice, 7.5 nmole/kg sc every 3 days
[8] = Study 1, DIO mice, 15 nmole/kg sc every 3 days
[9] = Study 1, DIO mice, 30 nmole/kg sc every 3 days
[10] = Study 2, DIO mice, 7.5 nmole/kg sc every 3 days
[11] = Study 2, DIO mice, 22.5 nmole/kg sc every 3 days

In the case of “His-(D-Ser)-Gln-Gly-Thr-Phe-Thr-Ser-Asp-(1-Nal)-Ser-Lys-Tyr-Leu-Asp-Glu-Lys-Ala-Ala-Gln-Glu-Phe-Val-Gln-Trp-Leu-Leu-Asn-(Aib)-Ala-Arg-Asn-Arg-Asn-Asn-Ile-Ala-Cys(20 kDa PEG)-Cys(20 kDa PEG)”, the “Glucose AUC, MEAN” value ([1]; 5 nmole/kg 16 hours before) is reported as 6287* mg*min/dL, the “Glucose AUC, MEAN” value ([1]; 15 nmole/kg 16 hours before) is reported as 6881* mg*min/dL and the “Insulin AUC, MEAN” value ([1]; 5 nmole/kg) is reported as 33.29* ng*min/mL. For the same substance, the “Insulin AUC, MEAN” value ([1]; 15 nmole/kg) was 58.32* ng*min/mL, the “Glucose AUC, MEAN” value ([2]; 7.5 nmole/kg) was 19198* mg*min/dL and the “Glucose AUC, MEAN” value ([2]; 22.5 nmole/kg) was 15720* mg*min/dL. The “Glucose AUC, MEAN” value ([3]; 7.5 nmole/kg 16 hours before) was 12103* mg*min/dL, the “Glucose AUC, MEAN” value ([3]; 15 nmole/kg 16 hours before) was 14837* mg*min/dL and the “blood glucose in ob/ob mice” value ([3]; single injection) was “normalized blood glucose”. For the same substance, the “Glucose AUC, MEAN” value [4] was 16944* mg*min/dL, the “cumulative weight loss compared to the vehicle group” value ([5]; Study 1, 7.5 nmole/kg every 3 days, 2 weeks) was “about 6%” and the “vehicle controlled cumulative weight loss” value ([5]; Study 1, 15 nmole/kg every 3 days, 2 weeks) was 10%. For the same substance, the “reduction of cumulative food intake compared to the vehicle group” value ([5]; Study 1, 15 nmole/kg) was 21%, the “vehicle controlled cumulative weight loss” value ([5]; Study 1, 30 nmole/kg every 3 days, 2 weeks) was 15% and the “reduction of cumulative food intake compared to the vehicle group” value ([5]; Study 1, 30 nmole/kg) was 27%. The “Fat mass loss (g fat weight change for 14 days)” value [5, 7] was -1.1 ± 0.3 g, the “Overall weight loss (g weight change for 14 days)” value [5, 7] was -1.7 ± 0.3 g and the “Total food intake (g total for 14 days)” value [5, 7] was 36.5 ± 1.2 g. For the same substance, the “Fat mass loss (g fat weight change for 14 days)” value [5, 8] was -2.7 ± 0.2 g, the “Overall weight loss (g weight change for 14 days)” value [5, 8] was -3.5 ± 0.3 g and the “Total food intake (g total for 14 days)” value [5, 8] was 31.4 ± 0.9 g. For the same substance, the “Fat mass loss (g fat weight change for 14 days)” value [5, 9] was -4.0 ± 0.3 g, the “Overall weight loss (g weight change for 14 days)” value [5, 9] was -5.6 ± 0.4 g and the “Total food intake (g total for 14 days)” value [5, 9] was 29.0 ± 1.3 g. The “Fat mass loss (g fat weight change for 14 days)” value [5, 10] was -1.6 ± 0.2 g, the “Overall weight loss (g weight change for 14 days)” value [5, 10] was -2.5 ± 0.3 g and the “Total food intake (g total for 14 days)” value [5, 10] was 33.3 ± 0.6 g. For the same substance, the “Fat mass loss (g fat weight change for 14 days)” value [5, 11] was -3.8 ± 0.2 g, the “Overall weight loss (g weight change for 14 days)” value [5, 11] was -5.2 ± 0.2 g and the “Total food intake (g total for 14 days)” value [5, 11] was 28.7 ± 0.6 g. For the same substance, the “decrease of body weight” value ([5]; Study 2, high dose (22.5 nmole/kg) every 3 days, 2 weeks) was roughly 10%, the “decrease of body weight” value ([5]; Study 2, low dose (7.5 nmole/kg) every 3 days, 2 weeks) was “about 5%” and the “blood glucose at all time points before and after the oral glucose challenge vs vehicle” value ([6]; all doses) was “significantly lowered”. The “Glucose AUC, MEAN” value ([6]; 7.5 nmole/kg) was 13802* mg*min/dL, the “Glucose AUC, MEAN” value ([6]; 15 nmole/kg) was 12668* mg*min/dL and the “Glucose AUC, MEAN” value ([6]; 30 nmole/kg) was 13056* mg*min/dL.
